Patent US6248716A, “Peptide, a method for its preparation and a pharmaceutical composition containing the peptide” (priority 1999, dated 2001)
Non-standard residues stand in square brackets, D forms with d. Residues, ends and D or L forms follow the SMILES beside them.

How the values were obtained:
[1] = Weight gain in chickens (cockerels); assay type: in vivo, P-46 breed
Description: The effect of the peptide on weight gain in chickens was examined. Tests were conducted on chickens of egg oriented productivity, "P-46" breed. 24 hour old cockerels were divided in 5 groups, 13 cockerels in each--one control group and 4 test groups.
The birds were given a full diet till they reached the age of 10 weeks. 100% of birds in both the control and test groups survived.
After 10 weeks, the cockerels were killed and examined.
Quality of the cockerel meat was tested on an organoleptic basis.

Weight gain in pigs = assay type: in vivo
Description: The purpose of the first stage of testing was to determine the optimal dose of the peptide necessary to achieve the desired weight gain and the most beneficial manner of administering the peptide. The first stage of testing was conducted over a period of 100 days.
The pigs were divided into seven groups of ten animals each. The animals were all aged 4-5 months, and weighed about the same. There was one control group and six test groups. All the groups were given an ordinary diet.
Test groups 2, 3, and 4 were administered the peptide (1.0, 5.0, 10.0 μg kg/body weight) with feed, for 20 days each month with a 10 day break. Test groups 5, 6, and 7 were administered the peptide by injections of 0.01% water solutions for five days each month with a 25 day break (0.1, 0.5 and 1.0 μg per body weight).
Physiological examinations and biochemical tests were carried out during the experiment. The pigs were weighed on the 30th, 65th and 100th days of the experiment. […] Administration of 1 μg per 1 kg of body weight by intramuscular injections achieved a weight gain 18% higher than the control group (group 6).
The second stage of the experiment lasted 95 days, after which the animals were killed. The second stage of the experiment was carried out only with groups three and six, in order to determine which method of administration of the peptide produced the best results. […]

[2] = Weight gain in young bulls; assay type: in vivo; conditions: during the experiment
Description: There were 7 groups of animals having approximately the same weight, with 12 young bulls in each group. The age of the animals was 2 months. There were 6 test groups and one control. The test animals were administered Sedatin with water before they were fed or as intramuscular injections in the amounts shown in Table 12. All animals received the same diet and were kept in the same conditions. Two animals in the control group fell ill during the experiment, and were replaced by analogs.
Two groups, one control and one test, were chosen for the second stage of the experiment. The test group was administered the peptide mixed with feed, in the amount of 10 μg per 1 kg of body weight. The control group was not administered any of the peptide. The data was biometrically processed.

For C[C@@H](NC(=O)[C@H](Cc1ccc(O)cc1)NC(=O)[C@@H](N)CCCNC(=N)N)C(=O)N[C@@H](Cc1ccccc1)C(=O)NCC(=O)O [H-Arg-Tyr-D-Ala-Phe-Gly-OH] (H-RY[dA]FG-OH), the “quality of cockerel meat (colour, smell, consistency, taste), organoleptic” value ([1]; all groups) was “the same as in the control group”, the birds survived ([1]; test groups, to age of 10 weeks) was 100% and the “biochemical and physicochemical tests” value (Weight gain in pigs) was “no deviation from the control group”. For the same molecule, the “quality characteristics (pathological changes, decrease of fat layer, etc.)” value (Weight gain in pigs) was “No changes were observed”, the “temperature, pulse and breath-rate” value [2] was “no deviation from the control group” and the solubility in alcohol (alcohol) was “slightly soluble”. The solubility in chloroform (chloroform) was “practically insoluble” and the solubility in water (water) was “soluble”.
